One block for each molecule: values may come before it.
Assays:
[1] = target: [Pyruvate dehydrogenase (acetyl-transferring)] kinase isozyme 1, mitochondrial (Homo sapiens, UniProt Q15118); test: Selectivity interaction (Millipore kinase profiler) EUB0000124b PDK1; details: at 10 µM
[2] = target: Cyclin-dependent kinase 18 (Homo sapiens) (UniProt Q07002); test: Selectivity interaction (KinomeScan (DiscoverX)) EUB0001049a CDK18; details: at 1 µM
[3] = target: Angiopoietin-1 receptor (Homo sapiens) (UniProt Q02763); test: Selectivity interaction (KinomeScan (DiscoverX)) EUB0001049a TEK; details: at 1 µM
Sequence of Angiopoietin-1 receptor (Homo sapiens) (Q02763 whole entry): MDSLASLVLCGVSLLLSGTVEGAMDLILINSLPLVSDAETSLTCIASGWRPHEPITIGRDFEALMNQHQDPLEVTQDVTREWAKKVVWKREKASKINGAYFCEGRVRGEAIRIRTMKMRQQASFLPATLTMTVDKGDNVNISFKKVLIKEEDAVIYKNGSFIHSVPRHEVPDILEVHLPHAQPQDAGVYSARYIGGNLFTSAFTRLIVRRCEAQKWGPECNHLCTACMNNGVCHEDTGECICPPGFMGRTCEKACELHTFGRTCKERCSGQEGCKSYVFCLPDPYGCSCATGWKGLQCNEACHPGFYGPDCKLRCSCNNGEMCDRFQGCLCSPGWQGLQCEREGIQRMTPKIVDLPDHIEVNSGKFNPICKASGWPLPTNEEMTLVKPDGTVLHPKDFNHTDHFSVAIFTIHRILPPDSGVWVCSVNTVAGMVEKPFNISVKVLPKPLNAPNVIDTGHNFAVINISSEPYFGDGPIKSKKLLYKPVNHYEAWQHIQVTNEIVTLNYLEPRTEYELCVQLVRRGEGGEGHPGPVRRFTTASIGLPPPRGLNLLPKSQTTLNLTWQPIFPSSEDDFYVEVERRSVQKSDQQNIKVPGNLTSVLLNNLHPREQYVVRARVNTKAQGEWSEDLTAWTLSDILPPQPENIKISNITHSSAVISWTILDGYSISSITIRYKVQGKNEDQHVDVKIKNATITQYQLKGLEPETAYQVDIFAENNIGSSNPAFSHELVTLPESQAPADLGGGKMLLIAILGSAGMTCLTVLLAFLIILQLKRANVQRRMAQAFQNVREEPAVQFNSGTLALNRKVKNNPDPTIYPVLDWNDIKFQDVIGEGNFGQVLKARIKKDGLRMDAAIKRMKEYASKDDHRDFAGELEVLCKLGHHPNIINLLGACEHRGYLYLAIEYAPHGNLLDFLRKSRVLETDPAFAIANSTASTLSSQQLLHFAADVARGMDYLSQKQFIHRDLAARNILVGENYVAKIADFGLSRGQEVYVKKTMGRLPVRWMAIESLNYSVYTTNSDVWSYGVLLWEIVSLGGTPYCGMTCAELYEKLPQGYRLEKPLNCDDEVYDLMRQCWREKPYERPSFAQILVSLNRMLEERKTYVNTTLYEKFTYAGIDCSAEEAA

[4] = target: T1, Inhibitor of nuclear factor kappa-B kinase subunit epsilon (Homo sapiens) (UniProt Q14164); test: Selectivity interaction (Kinase panel (Invitrogen)) EUB0000639a IKBKE; details: at 200 nM
T1 sequence (whole entry): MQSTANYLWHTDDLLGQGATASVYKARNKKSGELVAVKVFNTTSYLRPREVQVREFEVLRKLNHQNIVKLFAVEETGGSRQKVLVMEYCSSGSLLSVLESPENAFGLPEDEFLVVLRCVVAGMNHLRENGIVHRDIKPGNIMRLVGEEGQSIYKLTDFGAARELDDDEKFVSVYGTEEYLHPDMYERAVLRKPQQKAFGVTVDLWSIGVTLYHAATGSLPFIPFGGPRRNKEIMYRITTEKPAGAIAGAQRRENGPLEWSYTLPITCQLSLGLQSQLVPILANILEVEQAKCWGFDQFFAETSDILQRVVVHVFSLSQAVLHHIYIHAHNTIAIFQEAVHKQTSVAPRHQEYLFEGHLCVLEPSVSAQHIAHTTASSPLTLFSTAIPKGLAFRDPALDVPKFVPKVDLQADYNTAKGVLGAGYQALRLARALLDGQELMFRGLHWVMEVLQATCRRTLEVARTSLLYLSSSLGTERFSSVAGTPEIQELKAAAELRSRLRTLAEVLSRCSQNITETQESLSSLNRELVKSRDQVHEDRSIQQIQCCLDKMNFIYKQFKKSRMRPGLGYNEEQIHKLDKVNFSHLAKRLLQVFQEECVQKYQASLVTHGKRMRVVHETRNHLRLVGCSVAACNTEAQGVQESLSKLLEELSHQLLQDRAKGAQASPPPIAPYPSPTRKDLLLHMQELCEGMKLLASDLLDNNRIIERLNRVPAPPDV

[5] = target: Serine/threonine-protein kinase 16 (Homo sapiens, UniProt O75716); test: Selectivity interaction (ActivX KiNativ screen (kinase selectivity in THP-1 cell lysates)) EUB0000639a STK16; format: subcellular; details: lysate
Sequence of Serine/threonine-protein kinase 16 (O75716 whole entry): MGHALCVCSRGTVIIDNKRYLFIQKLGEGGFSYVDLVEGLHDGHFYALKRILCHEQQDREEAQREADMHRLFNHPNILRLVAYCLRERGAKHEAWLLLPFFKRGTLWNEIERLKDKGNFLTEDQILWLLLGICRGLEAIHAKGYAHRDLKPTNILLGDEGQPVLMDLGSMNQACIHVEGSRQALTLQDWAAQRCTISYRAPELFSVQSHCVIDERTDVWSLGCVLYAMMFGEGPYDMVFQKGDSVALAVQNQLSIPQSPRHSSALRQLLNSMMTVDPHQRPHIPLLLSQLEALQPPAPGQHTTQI

[6] = target: Ribosomal protein S6 kinase alpha-1 (Homo sapiens, UniProt Q15418); test: Selectivity interaction (ActivX KiNativ screen (kinase selectivity in THP-1 cell lysates)) EUB0000639a RPS6KA1; format: subcellular; details: lysate, at 0.01 µM
Sequence of Ribosomal protein S6 kinase alpha-1 (Q15418 whole entry): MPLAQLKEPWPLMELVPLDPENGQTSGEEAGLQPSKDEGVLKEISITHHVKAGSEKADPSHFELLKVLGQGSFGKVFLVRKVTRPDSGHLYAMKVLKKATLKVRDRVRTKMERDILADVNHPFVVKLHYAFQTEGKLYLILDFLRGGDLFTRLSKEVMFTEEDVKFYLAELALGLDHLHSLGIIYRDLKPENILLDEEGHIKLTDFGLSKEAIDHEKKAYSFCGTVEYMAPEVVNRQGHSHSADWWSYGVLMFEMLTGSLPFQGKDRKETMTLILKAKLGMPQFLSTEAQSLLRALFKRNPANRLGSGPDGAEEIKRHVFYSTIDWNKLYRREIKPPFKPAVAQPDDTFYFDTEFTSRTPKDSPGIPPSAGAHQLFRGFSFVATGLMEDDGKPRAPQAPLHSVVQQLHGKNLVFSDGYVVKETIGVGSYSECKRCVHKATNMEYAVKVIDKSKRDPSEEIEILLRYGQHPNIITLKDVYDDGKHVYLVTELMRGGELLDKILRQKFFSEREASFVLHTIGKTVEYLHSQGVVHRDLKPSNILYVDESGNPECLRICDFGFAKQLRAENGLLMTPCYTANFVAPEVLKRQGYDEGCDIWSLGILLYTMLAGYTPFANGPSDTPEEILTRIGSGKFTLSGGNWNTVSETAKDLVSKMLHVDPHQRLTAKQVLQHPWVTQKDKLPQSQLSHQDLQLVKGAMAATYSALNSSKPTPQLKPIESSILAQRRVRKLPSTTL

[7] = target: Dual specificity protein kinase CLK3 (Homo sapiens, UniProt P49761); test: Selectivity interaction (KinomeScan (DiscoverX)) EUB0001079a CLK3; details: at 1 µM
Sequence of Dual specificity protein kinase CLK3 (P49761 whole entry, looked up): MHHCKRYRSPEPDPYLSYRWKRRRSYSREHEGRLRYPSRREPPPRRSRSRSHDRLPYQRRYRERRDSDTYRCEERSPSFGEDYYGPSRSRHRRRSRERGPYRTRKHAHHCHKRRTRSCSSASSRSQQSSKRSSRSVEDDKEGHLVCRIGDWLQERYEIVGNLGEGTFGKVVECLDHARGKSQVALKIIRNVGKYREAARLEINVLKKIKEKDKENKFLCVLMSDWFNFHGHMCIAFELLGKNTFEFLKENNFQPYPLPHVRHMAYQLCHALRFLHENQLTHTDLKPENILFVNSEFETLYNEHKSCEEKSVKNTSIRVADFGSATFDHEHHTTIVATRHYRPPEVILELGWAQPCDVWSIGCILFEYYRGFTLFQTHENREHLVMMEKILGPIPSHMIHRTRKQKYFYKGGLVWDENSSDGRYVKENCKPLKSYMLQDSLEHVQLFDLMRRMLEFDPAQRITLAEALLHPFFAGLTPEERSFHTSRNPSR

[8] = target: Serine/threonine-protein kinase PAK 6 (Homo sapiens) (UniProt Q9NQU5); test: Selectivity interaction (KinomeScan (DiscoverX)) EUB0000045b PAK6; details: at 10 µM
Sequence of Serine/threonine-protein kinase PAK 6 (Homo sapiens) (Q9NQU5 whole entry, looked up): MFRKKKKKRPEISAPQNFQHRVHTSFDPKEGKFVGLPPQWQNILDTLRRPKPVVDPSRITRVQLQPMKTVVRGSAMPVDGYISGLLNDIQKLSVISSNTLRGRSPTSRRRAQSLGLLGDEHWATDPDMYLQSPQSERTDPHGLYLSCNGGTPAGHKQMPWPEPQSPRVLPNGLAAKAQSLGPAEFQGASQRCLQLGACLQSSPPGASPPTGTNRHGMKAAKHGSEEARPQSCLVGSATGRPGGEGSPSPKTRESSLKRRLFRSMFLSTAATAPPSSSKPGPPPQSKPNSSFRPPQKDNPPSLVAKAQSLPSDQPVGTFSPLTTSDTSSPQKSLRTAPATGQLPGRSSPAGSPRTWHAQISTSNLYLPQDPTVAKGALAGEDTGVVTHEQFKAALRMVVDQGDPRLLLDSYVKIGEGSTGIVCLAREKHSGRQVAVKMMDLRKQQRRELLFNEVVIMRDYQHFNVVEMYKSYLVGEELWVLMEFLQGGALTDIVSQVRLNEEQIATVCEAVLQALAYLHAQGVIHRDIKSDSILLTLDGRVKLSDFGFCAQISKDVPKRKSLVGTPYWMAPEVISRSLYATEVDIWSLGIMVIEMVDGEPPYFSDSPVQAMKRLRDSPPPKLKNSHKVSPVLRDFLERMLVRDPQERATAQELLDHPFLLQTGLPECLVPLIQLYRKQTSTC

[9] = target: T2, Serine/threonine-protein kinase TAO1 (Homo sapiens) (UniProt Q7L7X3); test: Selectivity interaction (KinomeScan (DiscoverX)) EUB0000607a TAOK1; details: at 10 µM
T2 sequence (whole entry): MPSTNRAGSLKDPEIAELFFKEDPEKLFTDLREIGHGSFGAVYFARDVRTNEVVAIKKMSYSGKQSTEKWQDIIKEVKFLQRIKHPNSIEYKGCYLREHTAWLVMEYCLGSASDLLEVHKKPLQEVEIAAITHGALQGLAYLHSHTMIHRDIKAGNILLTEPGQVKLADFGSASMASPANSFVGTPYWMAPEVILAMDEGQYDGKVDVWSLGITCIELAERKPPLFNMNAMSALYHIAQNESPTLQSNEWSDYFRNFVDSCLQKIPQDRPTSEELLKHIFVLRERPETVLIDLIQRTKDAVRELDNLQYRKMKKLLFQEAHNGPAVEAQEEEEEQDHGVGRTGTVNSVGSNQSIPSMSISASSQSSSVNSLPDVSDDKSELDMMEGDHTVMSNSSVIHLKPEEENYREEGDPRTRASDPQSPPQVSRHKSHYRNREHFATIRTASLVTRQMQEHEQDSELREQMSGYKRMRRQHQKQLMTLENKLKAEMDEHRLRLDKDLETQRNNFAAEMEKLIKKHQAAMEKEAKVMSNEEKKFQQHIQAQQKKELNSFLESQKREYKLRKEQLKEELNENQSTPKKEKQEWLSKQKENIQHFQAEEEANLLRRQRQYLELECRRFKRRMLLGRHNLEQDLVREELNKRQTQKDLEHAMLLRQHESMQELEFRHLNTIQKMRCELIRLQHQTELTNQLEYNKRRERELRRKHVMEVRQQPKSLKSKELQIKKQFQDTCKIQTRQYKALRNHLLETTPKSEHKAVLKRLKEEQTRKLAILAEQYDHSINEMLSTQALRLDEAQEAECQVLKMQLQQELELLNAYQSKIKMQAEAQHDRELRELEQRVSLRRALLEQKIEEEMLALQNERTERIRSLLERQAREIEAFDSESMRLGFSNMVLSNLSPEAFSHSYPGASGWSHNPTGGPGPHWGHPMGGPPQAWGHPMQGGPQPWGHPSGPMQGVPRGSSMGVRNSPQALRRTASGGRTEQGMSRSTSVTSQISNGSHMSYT

[10] = target: Cyclin-dependent kinase 9 (Homo sapiens, UniProt P50750); test: Selectivity interaction (Kinase panel (KiNativ target engagement assay in Jurkat cells)) EUB0001635a CDK9; format: cell-based; details: at 1 µM
Sequence of Cyclin-dependent kinase 9 (P50750 whole entry): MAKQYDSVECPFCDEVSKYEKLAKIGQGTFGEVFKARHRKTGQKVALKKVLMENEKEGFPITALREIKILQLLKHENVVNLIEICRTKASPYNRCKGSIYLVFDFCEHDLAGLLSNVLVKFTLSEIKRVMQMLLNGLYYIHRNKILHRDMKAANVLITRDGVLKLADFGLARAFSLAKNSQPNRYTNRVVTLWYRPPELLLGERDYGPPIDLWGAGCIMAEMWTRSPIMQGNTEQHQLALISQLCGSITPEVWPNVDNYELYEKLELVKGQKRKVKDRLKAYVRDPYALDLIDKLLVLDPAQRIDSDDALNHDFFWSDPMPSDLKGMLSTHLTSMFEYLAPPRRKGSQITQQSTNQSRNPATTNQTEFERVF

Sequence of Cyclin-dependent kinase 18 (Homo sapiens) (Q07002 whole entry): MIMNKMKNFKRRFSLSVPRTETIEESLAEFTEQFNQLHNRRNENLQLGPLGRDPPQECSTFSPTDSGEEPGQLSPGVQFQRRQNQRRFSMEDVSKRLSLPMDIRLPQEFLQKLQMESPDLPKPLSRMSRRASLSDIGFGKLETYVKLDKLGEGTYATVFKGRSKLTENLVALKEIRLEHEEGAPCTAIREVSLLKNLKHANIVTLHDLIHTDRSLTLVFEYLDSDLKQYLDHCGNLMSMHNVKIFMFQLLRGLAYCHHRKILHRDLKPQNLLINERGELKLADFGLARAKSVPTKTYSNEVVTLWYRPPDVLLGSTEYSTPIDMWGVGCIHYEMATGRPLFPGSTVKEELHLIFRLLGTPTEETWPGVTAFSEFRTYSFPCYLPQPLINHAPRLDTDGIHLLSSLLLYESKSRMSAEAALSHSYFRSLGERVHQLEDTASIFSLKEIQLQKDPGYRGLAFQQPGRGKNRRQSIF

% of control [1]: 107%
SMILES: CC(=O)Nc1cccc(-n2c(=O)n(C3CC3)c(=O)c3c(Nc4ccc(I)cc4F)n(C)c(=O)c(C)c32)c1

SMILES: COc1cc(Nc2nc(C)cc(-c3cnn4nc(OC)ccc34)n2)cc(C(F)(F)F)c1
% of control [2]: 87%
% of control [3]: 100%

% of inhibition [4]: 2.32%
% of inhibition ([5]; at 0.01 µM): 10.7%
% of inhibition ([5]; at 0.04 µM): 27.8%
% of inhibition ([5]; at 0.2 µM): 22.2%
% of inhibition ([5]; at 1 µM): 67.2%
% of inhibition ([5]; at 5 µM): > 94%
% of inhibition [6]: -8.3%
SMILES: CC[C@@H]1[C@H](F)C(=O)N[C@@H]1COc1nccc2cc(C(N)=O)c(OC)cc12 [ZIMLOVISERTIB]

SMILES: Nc1cnc(N2CCc3cc(S(=O)(=O)Nc4c(F)cc(Cl)cc4F)cc(N4CCCC4=O)c32)nc1 [TP-020n]
% of control [7]: 74%

SMILES: C=CC(=O)Nc1cc(-n2c(=O)ccc3cnc4ccc(-c5ccc(NS(C)(=O)=O)cc5)cc4c32)ccc1C
% of control [8]: 100%

SMILES: CNC(=O)Nc1ccc(-c2nc(N3CC4CCC(C3)O4)c3cnn(C4CCC5(CC4)OCCO5)c3n2)cc1
% of control [9]: 100%

SMILES: C=CC(=O)Nc1ccc(C(=O)Nc2[nH]nc3c2CN(C(=O)N[C@H](CN(C)C)c2ccccc2)C3(C)C)cc1
% of engagement [10]: -78.1%

Reference: ChEMBL document CHEMBL5465560, “Selectivity Literature for EUbOPEN Chemogenomic Library” (2024)
